Reference: US20250230155A1 (Vanderbilt University, priority 2021, published 2025)
Where two headings read alike, the source gives them in different places.

Target: T1, human mAChR M4 (Homo sapiens, UniProt P08173)
T1 construct: expressed in transfected cells
T1 sequence (P08173 1-479): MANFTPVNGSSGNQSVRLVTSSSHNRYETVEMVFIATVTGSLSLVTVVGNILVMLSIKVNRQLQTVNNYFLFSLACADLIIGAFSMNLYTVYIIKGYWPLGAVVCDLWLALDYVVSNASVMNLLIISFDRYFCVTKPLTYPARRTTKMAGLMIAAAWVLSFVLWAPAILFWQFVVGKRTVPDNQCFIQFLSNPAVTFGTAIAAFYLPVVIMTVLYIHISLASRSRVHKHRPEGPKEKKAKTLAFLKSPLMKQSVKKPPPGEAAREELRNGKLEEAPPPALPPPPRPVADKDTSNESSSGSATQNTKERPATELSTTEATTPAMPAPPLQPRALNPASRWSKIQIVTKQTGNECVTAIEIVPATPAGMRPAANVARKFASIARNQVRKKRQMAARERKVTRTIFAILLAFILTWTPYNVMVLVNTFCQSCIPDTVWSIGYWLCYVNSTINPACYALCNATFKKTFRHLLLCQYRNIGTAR
Assay: mAChR M4 cell-based functional assay (calcium mobilization, CHO-K1 hM4-Gqi5 cells)
Conditions: for Emax at 30 µM: CHO-K1, % ACh maximum at 30 μM, human M4; for EC50: increase in the EC20 acetylcholine response, CHO-K1 hM4-Gqi5 cells
Procedure: Human and rat M4 cDNAs, along with the chimeric G protein Gqi5, were transfected into Chinese hamster ovary (CHO-K1) cells purchased from the American Type Culture Collection using Lipofectamine2000. hM4-Gqi5 cells were grown in Ham's F-12 medium containing 10% heat-inactivated fetal bovine serum (FBS), 20 mM HEPES, 50 μg/mL G418 sulfate, and 500 μg/mL Hygromycin B. rM4-Ggi5 cells were grown in DiVEM containing 10% heat-inactivated FBS, 20 mM THEPES, 400 μμg/mL G418 sulfate, and 500 μμg/mL Hygromycin B.
For high throughput measurement of agonist-evoked increases in intracellular calcium, CHO-K1 cells stably expressing muscarinic receptors were plated in growth medium lacking G418 and hygromycin at 15,000 cells/20 μL/well in Greiner 384-well black-walled, tissue culture (TC)-treated, clear-bottom plates (VWR). Cells were incubated overnight at 37° C. and 5% CO2. The next day, cells were washed using an ELX 405 (BioTek) with assay buffer; the final volume was then aspirated to 20 μL. Next, 20 μL of a […] of Fluo-4/acetoxymethyl ester (Invitrogen, Carlsbad, CA), prepared as a 2.3 mM stock in DMSO and mixed in a 1:1 ratio with 10% (w/v) Pluronic F-127 and diluted in assay buffer, was added to the wells and the cell plates were incubated for 50 min at 37° C. and 5% C02. Dye was removed by washing with the ELX 405 and the final volume was aspirated to 20 μL. Compound master plates were formatted in an 11 point concentration-response curve (CRC) format (1:3 dilutions) in 100% DMSO with a starting concentration of 10 mM using a BRAVO liquid handler (Agilent). Test compound CRCs were then transferred to daughter plates (240 nL) using the Echo acoustic plate reformatter (Labcyte, Sunnyvale, CA) and then diluted into assay buffer (40 μL) to a 2× stock using a Thermo Fisher Combi (Thermo Fisher Scientific, Waltham, MA).
Calcium flux was measured using the Functional Drug Screening System (FDSS) 6000 or 7000 (Hamamatsu Corporation, Tokyo, Japan) as an increase in the fluorescent static ratio. Compounds were applied to cells (20 μL, 2×) using the automated system of the FDSS at 2-4 seconds into the protocol and the data were collected at 1 Hz. At 144 seconds, 10 μL of an EC20 concentration of the muscarinic receptor agonist acetylcholine was added (5×), followed by the addition of 12 μL of an EC80 concentration of acetylcholine at the 230 second time point (5×). Agonist activity was analyzed as a concentration-dependent increase in calcium mobilization upon compound addition. Positive allosteric modulator activity was analyzed as a concentration-dependent increase in the EC20 acetylcholine response. Antagonist activity was analyzed as a concentration-dependent decrease in the EC80 acetylcholine response. Concentration-response curves were generated using a four-parameter logistical equation in XLFit curve fitting software (IDBS, Bridgewater, NJ) for Excel (Microsoft, Redmond, WA) or Prism (GraphPad Software, Inc., San Diego, CA).
Compounds were synthesized as described above. Activity (EC50 and Emax) was determined in the mAChR M4 cell-based functional assay as described above and the data are shown in Table 2. The compound number corresponds to the compound numbers used in Table 1.

[1] = positive allosteric modulator activity, read-out: Human M4 EC50

| Emax at 30 µM | EC50 [1] | Structure (SMILES) | Emax (CHO-K1) | EC50 (Human M4 EC50, positive allosteric modulator activity) |
| --- | --- | --- | --- | --- |
| 99% | 0.173 µM | COC1CN(C(=O)c2cc(C)c(N3CCc4ncc(CC(F)(F)F)cc4C3)nn2)C1 [Example 589, (3-methoxyazetidin-1-yl)(5-methyl-6-(3-(2,2,2-trifluoroethyl)-7,8-dihydro-1,6-naphthyridin-6(5H)-yl)pyridazin-3-yl)methanone] |  |  |
| 86% | 0.37 µM | Cc1nc(Cl)c(C)c(N2CCc3ncc(Oc4cccnc4)cc3C2)n1 [compound 207, 6-(6-chloro-2,5-dimethyl-pyrimidin-4-yl)-3-(3-pyridyloxy)-7,8-dihydro-5H-1,6-naphthyridine] |  |  |
| 52% | ≥ 10 µM | Cc1cc(C(=O)NC2CCCC2)cnc1N1CCc2ncccc2C1 [compound 65, N-cyclopentyl-6-(7,8-dihydro-5H-1,6-naphthyridin-6-yl)-5-methyl-pyridine-3-carboxamide] |  |  |
| 63% | 0.424 µM | Cc1c(C#N)nnc(N2CCc3ncc(Cc4ccccc4F)cc3C2)c1C [Example 369, 6-(3-(2-fluorobenzyl)-7,8-dihydro-1,6-naphthyridin-6(5H)-yl)-4,5-dimethylpyridazine-3-carbonitrile] |  |  |
| 65% | 3.35 µM | COc1cccc2cc(CNC(=O)c3cnc(N4CCc5ncccc5C4)c(C)c3)oc12 [compound 162, 6-(7,8-dihydro-5H-1,6-naphthyridin-6-yl)-N-[(7-methoxybenzofuran-2-yl)methyl]-5-methyl-pyridine-3-carboxamide] |  |  |
| 72% | 1.12 µM | Cc1ccc(Oc2cnc3c(c2)CN(c2ncc(C#N)cc2C)CC3)c(F)c1 [Example 349, 6-(3-(2-fluoro-4-methylphenoxy)-7,8-dihydro-1,6-naphthyridin-6(5H)-yl)-5-methylnicotinonitrile] |  |  |
| 61% | 0.263 µM | Cc1nc(C)c(C)c(N2CCc3ncc(-c4ccc(-n5ccnc5)nc4)cc3C2)n1 [compound 232, 3-(6-(1H-imidazol-1-yl)pyridin-3-yl)-6-(2,5,6-trimethylpyrimidin-4-yl)-5,6,7,8-tetrahydro-1,6-naphthyridine] |  |  |
| 94% | 0.041 µM | Cc1cc(C(=O)NCc2cncs2)nnc1N1CCc2ncc(CC(F)(F)F)cc2C1 [Example 590, 5-methyl-N-(thiazol-5-ylmethyl)-6-(3-(2,2,2-trifluoroethyl)-7,8-dihydro-1,6-naphthyridin-6(5H)-yl)pyridazine-3-carboxamide] |  |  |
|  | 0.918 µM | Fc1ncccc1Nc1cnc2c(c1)CN(c1nc(Cl)nc3c1COC3)CC2 [compound 289, 6-(2-chloro-5,7-dihydrofuro[3,4-d]pyrimidin-4-yl)-N-(2-fluoropyridin-3-yl)-5,6,7,8-tetrahydro-1,6-naphthyridin-3-amine] |  |  |
| 81% | 0.297 µM | Cc1cc(C#N)nnc1N1CCc2ncc(Oc3ccc(F)cc3F)cc2C1 [Example 355, 6-(3-(2,4-difluorophenoxy)-7,8-dihydro-1,6-naphthyridin-6(5H)-yl)-5-methylpyridazine-3-carbonitrile] |  |  |
| 86% | 0.163 µM | Cc1c(C#N)nnc(N2CCc3ncc(-c4ccns4)cc3C2)c1C [compound 292, 6-(3-(isothiazol-5-yl)-7,8-dihydro-1,6-naphthyridin-6(5H)-yl)-4,5-dimethylpyridazine-3-carbonitrile] |  |  |
| 47% | 3.6 µM | Cc1c(C#N)nnc(N2CCc3ncc(N4CCO[C@@H](c5ccccc5)C4)cc3C2)c1C [Example 379, (S)-4,5-dimethyl-6-(3-(2-phenylmorpholino)-7,8-dihydro-1,6-naphthyridin-6(5H)-yl)pyridazine-3-carbonitrile] |  |  |
| 59% | ≥ 10 µM | Cc1cc(C(=O)NC2CC2)cnc1N1CCc2ncccc2C1 [compound 64, N-cyclopropyl-6-(7,8-dihydro-5H-1,6-naphthyridin-6-yl)-5-methyl-pyridine-3-carboxamide] |  |  |
| 19% | 8.39 µM | Cc1c(Cl)nc(C(F)(F)F)nc1N1CCc2ncc(-c3ccc(N(C)C)nc3)cc2C1 [compound 246, 5-(6-(6-chloro-5-methyl-2-(trifluoromethyl)pyrimidin-4-yl)-5,6,7,8-tetrahydro-1,6-naphthyridin-3-yl)-N,N-dimethylpyridin-2-amine] |  |  |
| 88% | 0.3 µM | Cc1c(Cl)nc(C(F)(F)F)nc1N1CCc2ncc(N3CCCn4nccc43)cc2C1 [compound 248, 6-(6-chloro-5-methyl-2-(trifluoromethyl)pyrimidin-4-yl)-3-(6,7-dihydropyrazolo[1,5-a]pyrimidin-4(5H)-yl)-5,6,7,8-tetrahydro-1,6-naphthyridine] |  |  |
| 64% | 0.271 µM | Cc1c(C#N)nnc(N2CCc3ncc(Oc4ccc(F)cc4F)cc3C2)c1C [Example 354, 6-(3-(2,4-difluorophenoxy)-7,8-dihydro-1,6-naphthyridin-6(5H)-yl)-4,5-dimethylpyridazine-3-carbonitrile] |  |  |
| 64% | 0.233 µM | Cc1c(C#N)nnc(N2CCc3ncc(Oc4cccc(F)c4F)cc3C2)c1C [Example 352, 6-(3-(2,3-difluorophenoxy)-7,8-dihydro-1,6-naphthyridin-6(5H)-yl)-4,5-dimethylpyridazine-3-carbonitrile] |  |  |
| 80% | 0.716 µM | Cc1nc(Cl)c(C)c(N2CCc3ncc(Nc4c(F)cccc4F)cc3C2)n1 [compound 89, 6-(6-chloro-2,5-dimethyl-pyrimidin-4-yl)-N-(2,6-difluorophenyl)-7,8-dihydro-5H-1,6-naphthyridin-3-amine] |  |  |
| 74% | 0.897 µM | Cc1cc(C#N)cnc1N1CCc2ncc(OCCOC3CCCC3)cc2C1 [Example 433, 6-(3-(2-(cyclopentyloxy)ethoxy)-7,8-dihydro-1,6-naphthyridin-6(5H)-yl)-5-methylnicotinonitrile] |  |  |
|  |  | Cc1cc(C#N)cnc1N1CCc2ncc(C3CC3)cc2C1 [Example 330, 6-(3-cyclopropyl-7,8-dihydro-1,6-naphthyridin-6(5H)-yl)-5-methylnicotinonitrile] | 85% | 0.071 µM |
| 77% | 0.275 µM | Cc1nc(C)c(C)c(N2CCc3ncc(Oc4ccc(F)cc4F)cc3C2)n1 [compound 262, 3-(2,4-difluorophenoxy)-6-(2,5,6-trimethylpyrimidin-4-yl)-5,6,7,8-tetrahydro-1,6-naphthyridine] |  |  |
| 92% | 0.026 µM | [2H]C1([2H])Cc2ncc(Nc3cc(C)ncc3F)cc2C([2H])([2H])N1c1nnc(C#N)c(C)c1C [Example 600, 6-(3-((5-fluoro-2-methylpyridin-4-yl)amino)-7,8-dihydro-1,6-naphthyridin-6(5H)-yl-5,5,7,7-d4)-4,5-dimethylpyridazine-3-carbonitrile] |  |  |
| 82% | 0.518 µM | Cc1nc(Cl)c(C)c(N2CCc3ncc(-c4ccc(N(C)C)nc4)cc3C2)n1 [compound 220, 5-(6-(6-chloro-2,5-dimethylpyrimidin-4-yl)-5,6,7,8-tetrahydro-1,6-naphthyridin-3-yl)-N,N-dimethylpyridin-2-amine] |  |  |
